According to ChEMBL document CHEMBL2424546, “Synthesis, transformation and biological evaluation of 2,3-secotriterpene acetylhydrazones and their derivatives” (Eur J Med Chem, 2013):

Tests used:
[1] = Therapeutic index, ratio of IC50 for pig PEK cells to EC50 for vesicular stomatitis virus Indiana infected in pig PEK cells; format: cell-based; details: read-out: Ratio IC50/EC50
[2] = system: Vesicular stomatitis Indiana virus; test: Antiviral activity against vesicular stomatitis virus Indiana infected in pig PEK cells assessed as inhibition of virus replication after 48 hrs by MTT assay; format: functional, organism-based
[3] = Cytotoxicity against human MS cells after 72 hrs ny MTT assay; format: cell-based
[4] = system: A549; test: Cytotoxicity against human A549 cells after 72 hrs ny MTT assay; format: cell-based; details: A549, 72 h
[5] = Cytotoxicity against human TE-32 cells after 72 hrs ny MTT assay; format: cell-based; details: RD
[6] = Cytotoxicity against pig PEK cells after 48 hrs by MTT assay; format: cell-based, Sus scrofa
[7] = system: RD; test: Induction of apoptosis in human RD cells assessed as damaged cells at 10.9 uM after 6 hrs by annexinV-FITC/propidium iodide staining-based flow cytometry (reference value: 0.84%); format: cell-based
[8] = system: RD; test: Induction of apoptosis in human RD cells assessed as late apoptotic/necrotic cells at 10.9 uM after 6 hrs by annexinV-FITC/propidium iodide staining-based flow cytometry (reference value: 1.20%); format: cell-based
[9] = system: RD; test: Induction of apoptosis in human RD cells assessed as early apoptotic cells at 10.9 uM after 6 hrs by annexinV-FITC/propidium iodide staining-based flow cytometry (reference value: 1.21%); format: cell-based
[10] = Induction of apoptosis in human RD cells assessed as viable cells at 10.9 uM after 6 hrs by annexinV-FITC/propidium iodide staining-based flow cytometry (reference value: 96.85%); format: cell-based; details: read-out: Activity
[11] = system: RD; test: Induction of apoptosis in human RD cells at 10.9 uM after 6 hrs by annexinV-FITC/propidium iodide staining-based flow cytometry relative to control; format: cell-based
[12] = system: RD; test: Induction of apoptosis in human RD cells assessed as damaged cells at 4.5 uM after 6 hrs by annexinV-FITC/propidium iodide staining-based flow cytometry (reference value: 0.84%); format: cell-based
[13] = system: RD; test: Induction of apoptosis in human RD cells assessed as late apoptotic/necrotic cells at 4.5 uM after 6 hrs by annexinV-FITC/propidium iodide staining-based flow cytometry (reference value: 1.20%); format: cell-based
[14] = system: RD; test: Induction of apoptosis in human RD cells assessed as early apoptotic cells at 4.5 uM after 6 hrs by annexinV-FITC/propidium iodide staining-based flow cytometry (reference value: 1.21%); format: cell-based
[15] = Induction of apoptosis in human RD cells assessed as viable cells at 4.5 uM after 6 hrs by annexinV-FITC/propidium iodide staining-based flow cytometry (reference value: 96.85%); format: cell-based; details: read-out: Activity
[16] = Vesicular stomatitis Indiana virus, PEK, 48 h, read-out: EC50

| Compound | selectivity ratio [1] | EC50 ([2]; pek) | IC50 [3] [µM] | IC50 [4] [µM] | IC50 [5] [µM] | EC50 [2, 16] [µM] | further results |
| --- | --- | --- | --- | --- | --- | --- | --- |
| C=C(C)[C@@H]1CC[C@]2(C(=O)OC)CC[C@]3(C)[C@H](CC[C@@H]4[C@@](C)(CC#N)[C@H](C(C)(C)/C=N/N(C(C)=O)C(C)=O)CC[C@]43C)[C@@H]12 | 2 | Not Active | – | – | – | – | – |
| CC(=O)N1N=C(C)O[C@H]1C(C)(C)[C@@H]1CC[C@]2(C)[C@H](CC[C@@H]3[C@H]4[C@H]5OC[C@@]4(CCC5(C)C)CC[C@]32C)[C@@]1(C)CC#N | – | Not Active | 40.3 | 95.5 | 85 | – | – |
| C=C(C)[C@@H]1CC[C@]2(C(=O)OC)CC[C@]3(C)[C@H](CC[C@@H]4[C@@](C)(CC#N)[C@H](C(C)(C)/C=N/NC(C)=O)CC[C@]43C)[C@@H]12 | 37 | – | – | – | – | 1.58 | – |
| COC(=O)[C@@]1(C)CC[C@]2(C)CC[C@]3(C)C(=CC(=O)[C@@H]4[C@@](C)(CC#N)[C@H](C(C)(C)[C@@H]5OC(C)=NN5C(C)=O)CC[C@]43C)[C@@H]2C1 | – | – | 71.2 | > 200 | > 200 | – | – |
| C=C(C)[C@@H]1CC[C@]2(C(=O)NCCC(=O)OCC)CC[C@]3(C)[C@H](CC[C@@H]4[C@@](C)(CC#N)[C@H](C(C)(C)/C=N/NC(C)=O)CC[C@]43C)[C@@H]12 | – | Not Active | – | – | – | – | – |
| C=C(C)[C@@H]1CC[C@]2(C(=O)O)CC[C@]3(C)[C@H](CC[C@@H]4[C@@]5(C)CC[C@H](O)C(C)(C)[C@@H]5CC[C@]43C)[C@@H]12 [BETULINIC ACID] | 0.07 | – | 16 | 44 | 23.9 | 160 | – |
| CC(=O)N(/N=C/C(C)(C)[C@@H]1CC[C@]2(C)[C@H](CC[C@@H]3[C@H]4[C@H]5OC[C@@]4(CCC5(C)C)CC[C@]32C)[C@@]1(C)CC#N)C(C)=O | 8 | – | – | – | – | 15.9 | – |
| C=C(C)[C@@H]1CC[C@]2(C(=O)OC)CC[C@]3(C)[C@H](CC[C@@H]4[C@@](C)(CC#N)[C@H](C(C)(C)[C@@H]5OC(C)=NN5C(C)=O)CC[C@]43C)[C@@H]12 | 5 | – | 110 | 133 | > 200 | 0.34 | Activity [6]: Toxic |
| CC(=O)N1N=C(C)O[C@@H]1C(C)(C)[C@@H]1CC[C@]2(C)[C@H](CC[C@@H]3[C@H]4[C@H]5OC[C@@]4(CCC5(C)C)CC[C@]32C)[C@@]1(C)CC#N | – | Not Active | 11.5 | 147 | 82.2 | – | – |
| C=C(C)[C@@H]1CC[C@]2(C(=O)NC(C)C)CC[C@]3(C)[C@H](CC[C@@H]4[C@@](C)(CC#N)[C@H](C(C)(C)/C=N/NC(C)=O)CC[C@]43C)[C@@H]12 | – | Not Active | – | – | – | – | – |
| C=C(C)[C@@H]1CC[C@]2(C(=O)OC)CC[C@]3(C)[C@H](CC[C@@H]4[C@@](C)(CC#N)[C@H](C(C)(C)[C@H]5OC(C)=NN5C(C)=O)CC[C@]43C)[C@@H]12 | 3 | – | 5.84 | 18.6 | 10.9 | 0.62 | Activity [7]: 1.51%; Activity [8]: 2.21%; Activity [9]: 3.83%; viability at 6 h, 10.9 µM [10]: 92.5%; fold change (FC) [11]: 3; Activity [6]: Toxic |
| COC(=O)[C@@]1(C)CC[C@]2(C)CC[C@]3(C)C(=CC(=O)[C@@H]4[C@@](C)(CC#N)[C@H](C(C)(C)[C@H]5OC(C)=NN5C(C)=O)CC[C@]43C)[C@@H]2C1 | – | – | 88.7 | 133 | 166 | – | – |
| CC[C@@]1(O)C(=O)OCc2c1cc1n(c2=O)Cc2cc3ccccc3nc2-1 [CAMPTOTHECIN] | – | – | 0.23 | 37.1 | 4.47 | – | Activity [12]: 0.67%; Activity [13]: 3.1%; Activity [14]: 4.08%; viability at 6 h, 4.5 µM [15]: 92.2% |
| COC(=O)[C@@]1(C)CC[C@]2(C)CC[C@]3(C)C(=CC(=O)[C@@H]4[C@@](C)(CC#N)[C@H](C(C)(C)/C=N/NC(C)=O)CC[C@]43C)[C@@H]2C1 | 2 | – | – | – | – | 18.4 | – |
| CC(=O)N/N=C/C(C)(C)[C@@H]1CC[C@]2(C)[C@H](CC[C@@H]3[C@H]4[C@H]5OC[C@@]4(CCC5(C)C)CC[C@]32C)[C@@]1(C)CC#N | 149 | – | – | – | – | 0.41 | – |
